From US20080161320A1, “FUSED BICYCLIC PYRIMIDINES AS PTK INHIBITORS CONTAINING A ZINC BINDING MOIETY” (priority 2006, published 2008)

Key:
HDAC = HDAC fluorimetric assay kit (AK-500, Biomol), HeLa nuclear extract; format: biochemical
Protocol: HDAC inhibitors were screened using an HDAC fluorimetric assay kit (AK-500, Biomol, Plymouth Meeting, Pa.). […] Each assay was setup as follows: Defrosted all kit components and kept on ice until use. […] Prepared dilutions of Trichostatin A (TSA, positive control) and tested compounds in assay buffer (5× of final concentration). Diluted Fluor de Lys™ Substrate in assay buffer to 100 uM (50 fold=2× final). Diluted Fluor de Lys™ developer concentrate 20-fold (e.g. 50 μl plus 950 μl Assay Buffer) in cold assay buffer. Second, diluted the 0.2 mM Trichostatin A 100-fold in the 1× Developer (e.g. 10 μl in 1 ml; final Trichostatin A concentration in the 1× Developer=2 μM; final concentration after addition to HDAC/Substrate reaction=1 μM). Added Assay buffer, diluted trichostatin A or test inhibitor to appropriate wells of the microtiter plate. Added diluted HeLa extract or other HDAC sample to all wells except for negative controls.

human VEGFR2 = human VEGFR2 (Homo sapiens, UniProt P35968); test: HTScan Receptor Kinase Assay, VEGFR2;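 also: recombinant GST-His-tagged human VEGFR2 kinase domain phosphorylating biotinylated gastrin precursor peptide, 30 min at room temperature, phosphotyrosine detected by Europium-labelled antibody time-resolved fluorescence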
human HER2/ErbB2 = human HER2/ErbB2 (Homo sapiens, UniProt P04626); test: HTScan Receptor Kinase Assay, HER2/ErbB2;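 also: europium time-resolved fluorescence detection of anti-phosphotyrosine antibody binding to biotinylated FLT3 (Tyr589) peptide phosphorylated by the kinase, 30 min reaction at room temperature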
human EGFR = molecular target: T1, human EGFR (Homo sapiens, UniProt P00533); test: HTScan Receptor Kinase Assay, EGFR; format: biochemical
T1 construct: human EGFR (His672-Ala1210); GST (N); purchased Cell Signaling Technologies; host or cells: baculovirus expression system
T1 sequence (P00533 672-1210): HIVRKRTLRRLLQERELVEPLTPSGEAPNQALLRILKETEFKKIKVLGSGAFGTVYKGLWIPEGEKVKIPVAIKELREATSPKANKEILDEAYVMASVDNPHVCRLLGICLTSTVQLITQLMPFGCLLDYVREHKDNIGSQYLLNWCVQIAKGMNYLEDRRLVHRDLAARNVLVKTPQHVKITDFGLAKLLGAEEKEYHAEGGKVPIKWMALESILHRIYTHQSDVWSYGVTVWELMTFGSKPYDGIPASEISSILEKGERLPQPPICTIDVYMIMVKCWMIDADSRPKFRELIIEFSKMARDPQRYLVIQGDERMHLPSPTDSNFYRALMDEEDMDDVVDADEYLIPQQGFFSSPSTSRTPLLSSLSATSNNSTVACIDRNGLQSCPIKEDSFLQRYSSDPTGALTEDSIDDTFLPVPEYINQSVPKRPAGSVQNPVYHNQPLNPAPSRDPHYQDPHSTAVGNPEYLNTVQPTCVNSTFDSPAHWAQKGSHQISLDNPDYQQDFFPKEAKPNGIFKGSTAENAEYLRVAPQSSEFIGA

Chain of human HER2/ErbB2 (P04626 676-1255): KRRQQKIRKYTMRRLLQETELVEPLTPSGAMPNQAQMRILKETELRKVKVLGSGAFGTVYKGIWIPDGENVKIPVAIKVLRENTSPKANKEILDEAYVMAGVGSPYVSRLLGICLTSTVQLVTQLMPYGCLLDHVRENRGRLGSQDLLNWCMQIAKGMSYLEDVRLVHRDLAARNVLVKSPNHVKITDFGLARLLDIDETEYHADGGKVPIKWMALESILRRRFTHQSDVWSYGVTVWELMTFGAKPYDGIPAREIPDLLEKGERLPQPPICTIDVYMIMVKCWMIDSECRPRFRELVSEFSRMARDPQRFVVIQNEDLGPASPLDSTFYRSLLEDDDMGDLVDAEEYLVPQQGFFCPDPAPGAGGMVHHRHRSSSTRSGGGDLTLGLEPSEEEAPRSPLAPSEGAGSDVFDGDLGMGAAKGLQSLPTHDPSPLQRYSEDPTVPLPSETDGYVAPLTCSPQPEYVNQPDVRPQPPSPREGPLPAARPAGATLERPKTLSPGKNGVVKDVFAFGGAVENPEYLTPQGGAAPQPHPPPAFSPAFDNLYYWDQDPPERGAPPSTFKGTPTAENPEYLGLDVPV
Chain of human VEGFR2 (P35968 807-1356 limits assumed): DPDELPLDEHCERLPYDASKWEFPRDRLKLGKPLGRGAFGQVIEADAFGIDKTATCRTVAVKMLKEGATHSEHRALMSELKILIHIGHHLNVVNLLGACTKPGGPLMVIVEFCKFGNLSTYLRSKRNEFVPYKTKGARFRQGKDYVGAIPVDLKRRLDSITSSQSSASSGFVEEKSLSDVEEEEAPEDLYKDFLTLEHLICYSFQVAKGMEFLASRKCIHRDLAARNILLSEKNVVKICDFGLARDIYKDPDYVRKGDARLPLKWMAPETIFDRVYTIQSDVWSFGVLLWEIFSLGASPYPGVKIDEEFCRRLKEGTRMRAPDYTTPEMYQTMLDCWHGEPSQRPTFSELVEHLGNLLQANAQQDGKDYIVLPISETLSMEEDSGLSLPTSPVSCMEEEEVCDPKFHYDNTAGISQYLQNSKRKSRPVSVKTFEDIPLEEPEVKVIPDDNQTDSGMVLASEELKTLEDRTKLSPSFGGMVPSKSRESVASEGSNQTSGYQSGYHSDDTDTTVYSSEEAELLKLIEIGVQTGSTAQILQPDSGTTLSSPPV

Row | IC50 (HDAC) | IC50 (human VEGFR2) | IC50 (human HER2/ErbB2) | melting point | IC50 (human EGFR) | Compound
1 | < 100 nM | 1000 to 10000 nM | < 100 nM | 116.8 to 126.8 °C | < 100 nM | C[C@@H](Nc1ncnc2[nH]c(-c3ccc(OCC(=O)NO)cc3)cc12)c1ccccc1 [Compound 17, (R)—N-hydroxy-2-(4-(4-(1-phenylethylamino)-7H-pyrrolo[2,3-d]pyrimidin-6-yl)phenoxy)acetamide]
2 | 100 to 1000 nM | 100 to 1000 nM | 100 to 1000 nM |  | < 100 nM | C[C@@H](Nc1ncnc2[nH]c(-c3ccc(NC(=O)CCCC(=O)NO)cc3)cc12)c1ccccc1 [Compound 25, (R)—N^1-Hydroxy-N^5-(4-(4-(1-phenylethylamino)-7H-pyrrolo[2,3-d]pyrimidin-6-yl)phenyl)glutaramide]
3 | < 100 nM | 100 to 1000 nM | 100 to 1000 nM |  | < 100 nM | C[C@@H](Nc1ncnc2[nH]c(-c3ccc(NC(=O)CCCCC(=O)NO)cc3)cc12)c1ccccc1 [Compound 26, (R) —N^1-Hydroxy-N^6-(4-(4-(1-phenylethylamino)-7H-pyrrolo[2,3-d]pyrimidin-6-yl)phenyl)adipamide]
4 | < 100 nM | 100 to 1000 nM | 100 to 1000 nM |  | < 100 nM | C[C@@H](Nc1ncnc2[nH]c(-c3ccc(NC(=O)CCCCCCC(=O)NO)cc3)cc12)c1ccccc1 [Compound 27, (R)—N^1-Hydroxy-N^8-(4-(4-(1-phenylethylamino)-7H-pyrrolo[2,3-d]pyrimidin-6-yl)phenyl)octanediamide]
5 | > 10000 nM | 100 to 1000 nM | 100 to 1000 nM |  | 100 to 1000 nM | C[C@@H](Nc1ncnc2[nH]c(-c3ccc(C(=O)NCCNCC(=O)NO)cc3)cc12)c1ccccc1 [Compound 28, (R)—N-(2-(2-(Hydroxyamino)-2-oxoethylamino)ethyl)-4-(4-(1-phenylethylamino)-7H-pyrrolo[2,3-d]pyrimidin-6-yl)benzamide]
6 | < 100 nM | 100 to 1000 nM | 100 to 1000 nM |  | < 100 nM | C[C@@H](Nc1ncnc2[nH]c(-c3ccc(C(=O)NCCNCCC(=O)NO)cc3)cc12)c1ccccc1 [Compound 29, (R)—N-(2-(3-(Hydroxyamino)-3-oxopropylamino)ethyl)-4-(4-(1-phenylethylamino)-7H-pyrrolo[2,3-d]pyrimidin-6-yl)benzamide]
7 | 100 to 1000 nM | 100 to 1000 nM | 100 to 1000 nM |  | < 100 nM | C[C@@H](Nc1ncnc2[nH]c(-c3ccc(C(=O)NCCNCCCCCC(=O)NO)cc3)cc12)c1ccccc1 [Compound 30, (R)—N-(2-(6-(Hydroxyamino)-6-oxohexylamino)ethyl)-4-(4-(1-phenylethylamino)-7H-pyrrolo[2,3-d]pyrimidin-6-yl)benzamide]
8 | < 100 nM | 100 to 1000 nM | 100 to 1000 nM |  | < 100 nM | C[C@@H](Nc1ncnc2[nH]c(-c3ccc(C(=O)NCCNCCCCCCC(=O)NO)cc3)cc12)c1ccccc1 [Compound 31, (R)—N-(2-(7-(Hydroxyamino)-7-oxoheptylamino)ethyl)-4-(4-(1-phenylethylamino)-7H-pyrrolo[2,3-d]pyrimidin-6-yl)benzamide]
9 | 100 to 1000 nM | 100 to 1000 nM | 100 to 1000 nM |  | < 100 nM | C[C@@H](Nc1ncnc2[nH]c(-c3ccc(CNCCCCCC(=O)NO)cc3)cc12)c1ccccc1 [Compound 32, (R)—N-hydroxy-6-(4-(4-(1-phenylethylamino)-7H-pyrrolo[2,3-d]pyrimidin-6-yl)benzylamino)hexanamide]
10 | < 100 nM | 100 to 1000 nM | 100 to 1000 nM |  | < 100 nM | C[C@@H](Nc1ncnc2[nH]c(-c3ccc(CNCCCCCCC(=O)NO)cc3)cc12)c1ccccc1 [Compound 33, (R)—N-hydroxy-7-(4-(4-(1-phenylethylamino)-7H-pyrrolo[2,3-d]pyrimidin-6-yl)benzylamino)heptanamide]
11 | 100 to 1000 nM | 100 to 1000 nM | 100 to 1000 nM |  | 100 to 1000 nM | O=C(CCCCCN1CCN(Cc2ccc(-c3cc4c(NCc5ccccc5)ncnc4[nH]3)cc2)CC1)NO [Compound 36]
12 | < 100 nM | 1000 to 10000 nM | 100 to 1000 nM |  | 100 to 1000 nM | C[C@@H](Nc1ncnc2[nH]c(-c3ccc(OCCCCCCC(=O)NO)cc3)cc12)c1ccc(F)cc1 [Compound 37]
13 | < 100 nM | 1000 to 10000 nM | 1000 to 10000 nM |  | 100 to 1000 nM | O=C(CCCCCCOc1ccc(-c2cc3c(NCc4ccccc4)ncnc3[nH]2)cc1)NO [Compound 38, 7-(4-(4-(benzylamino)-7H-pyrrolo[2,3-d]pyrimidin-6-yl)phenoxy)-N-hydroxyheptanamide]
14 | 100 to 1000 nM | 100 to 1000 nM | < 100 nM |  | < 100 nM | C[C@@H](Nc1ncnc2[nH]c(-c3ccc(C(=O)NO)cc3)cc12)c1ccccc1 [Compound 39, (R)—N-hydroxy-4-(4-(1-phenylethylamino)-7H-pyrrolo[2,3-d]pyrimidin-6-yl)benzamide]
15 | 100 to 1000 nM | 1000 to 10000 nM | 100 to 1000 nM |  | < 100 nM | O=C(NO)c1ccc(-c2cc3c(NCc4ccccc4)ncnc3[nH]2)cc1 [Compound 40]
16 | 100 to 1000 nM | 100 to 1000 nM | 100 to 1000 nM |  | < 100 nM | C[C@@H](Nc1ncnc2[nH]c(-c3ccc(C(=O)NO)cc3)cc12)c1ccc(F)cc1 [Compound 41]
17 | 100 to 1000 nM | 1000 to 10000 nM | 1000 to 10000 nM |  | < 100 nM | C[C@@H](Nc1ncnc2[nH]c(-c3ccc(NCc4ccc(/C=C/C(=O)NO)cc4)cc3)cc12)c1ccccc1 [Compound 42, (R,E)-N-Hydroxy-3-(4-((4-(4-(1-phenylethylamino)-7H-pyrrolo[2,3-d]pyrimidin-6-yl)phenylamino)methyl)phenyl)acrylamide]
18 | 100 to 1000 nM | 1000 to 10000 nM | 100 to 1000 nM |  | < 100 nM | C[C@@H](Nc1ncnc2[nH]c(-c3ccc(NCc4ccc(C(=O)NO)cc4)cc3)cc12)c1ccccc1 [Compound 43, (R)—N-Hydroxy-4-((4-(4-(1-phenylethylamino)-7H-pyrrolo[2,3-d]pyrimidin-6-yl)phenylamino)methyl)benzamide]
19 | 100 to 1000 nM | 100 to 1000 nM | 100 to 1000 nM |  | < 100 nM | C[C@@H](Nc1ncnc2[nH]c(-c3ccc(CNCc4ccc(C(=O)NO)cc4)cc3)cc12)c1ccccc1 [Compound 44, (R)—N-hydroxy-4-((4-(4-(1-phenylethylamino)-7H-pyrrolo[2,3-d]pyrimidin-6-yl)benzylamino)methyl)benzamide]
20 | 100 to 1000 nM | < 100 nM | < 100 nM |  | < 100 nM | C[C@@H](Nc1ncnc2[nH]c(-c3ccc(OCCNCCCCCCC(=O)NO)cc3)cc12)c1ccccc1 [Compound 60, (R)—N-hydroxy-7-(2-(4-(4-(1-phenylethylamino)-7H-pyrrolo[2,3-d]pyrimidin-6-yl)phenoxy)ethylamino)heptanamide]
21 | < 100 nM | 100 to 1000 nM | < 100 nM |  | < 100 nM | C[C@@H](Nc1ncnc2[nH]c(-c3ccc(NCCCCCCC(=O)NO)cc3)cc12)c1ccccc1 [Compound 67, (R)—N-hydroxy-7-(4-(4-(1-phenylethylamino)-7H-pyrrolo[2,3-d]pyrimidin-6-yl)phenylamino)heptanamide]
